Experimental data as given in ChEMBL document CHEMBL3808371, “Design, synthesis and biological evaluation of diaziridinyl quinone isoxazole hybrids” (Eur J Med Chem, 2016).
Calls of active or inactive are those of the source.

Key:
[1] = Cytotoxicity against human PC3 cells; format: functional, cell-based; conditions: PC-3
A549 = experiment: Cytotoxicity against human A549 cells; format: functional, cell-based
Bacillus subtilis [2] = experiment: Bactericidal activity against Bacillus subtilis MTCC 121 after 24 hrs by serial dilution method; format: functional; conditions: MTCC 121, 24 h
Pseudomonas aeruginosa = experiment: Antimicrobial activity against Pseudomonas aeruginosa MTCC 2453 after 24 hrs by well diffusion method; format: functional
Micrococcus luteus [3] = experiment: Bactericidal activity against Micrococcus luteus MTCC 2470 after 24 hrs by serial dilution method; format: functional; conditions: MTCC 2470, 24 h
Bacillus subtilis [4] = experiment: Antibiofilm activity against Bacillus subtilis MTCC 121 after 24 hrs by crystal violet staining based assay; format: functional, organism-based; conditions: MTCC 121, 24 h
Bacillus subtilis [5] = experiment: Antimicrobial activity against Bacillus subtilis MTCC 121 after 24 hrs by well diffusion method; format: functional
Escherichia coli = experiment: Antimicrobial activity against Escherichia coli MTCC 739 after 24 hrs by well diffusion method; format: functional
Staphylococcus aureus [6] = experiment: Antibiofilm activity against Staphylococcus aureus MTCC 96 after 24 hrs by crystal violet staining based assay; format: functional, organism-based; conditions: MTCC 96, 24 h
Staphylococcus aureus [7] = experiment: Bactericidal activity against Staphylococcus aureus MLS16 MTCC 2940 after 24 hrs by serial dilution method; format: functional; conditions: MLS16 MTCC 2940, 24 h
Micrococcus luteus [8] = experiment: Antimicrobial activity against Micrococcus luteus MTCC 2470 after 24 hrs by well diffusion method; format: functional
Raoultella planticola [9] = experiment: Antibiofilm activity against Klebsiella planticola MTCC 530 after 24 hrs by crystal violet staining based assay; format: functional, organism-based; conditions: MTCC 530, 24 h
Staphylococcus aureus [10] = experiment: Bactericidal activity against Staphylococcus aureus MTCC 96 after 24 hrs by serial dilution method; format: functional; conditions: MTCC 96, 24 h
Raoultella planticola [11] = experiment: Bactericidal activity against Klebsiella planticola MTCC 530 after 24 hrs by serial dilution method; format: functional; conditions: MTCC 530, 24 h
Micrococcus luteus [12] = experiment: Antibiofilm activity against Micrococcus luteus MTCC 2470 after 24 hrs by crystal violet staining based assay; format: functional, organism-based; conditions: MTCC 2470, 24 h
Staphylococcus aureus [13] = experiment: Antimicrobial activity against Staphylococcus aureus MLS16 MTCC 2940 after 24 hrs by well diffusion method; format: functional
Candida albicans [14] = experiment: Antimicrobial activity against Candida albicans MTCC 3017 after 24 hrs by well diffusion method; format: functional; conditions: MTCC 3017, 24 h
Staphylococcus aureus [15] = experiment: Antibiofilm activity against Staphylococcus aureus MLS16 MTCC 2940 after 24 hrs by crystal violet staining based assay; format: functional, organism-based; conditions: MLS16 MTCC 2940, 24 h
Raoultella planticola [16] = experiment: Antimicrobial activity against Klebsiella planticola MTCC 530 after 24 hrs by well diffusion method; format: functional
Staphylococcus aureus [17] = experiment: Antimicrobial activity against Staphylococcus aureus MTCC 96 after 24 hrs by well diffusion method; format: functional
Candida albicans [18] = experiment: Fungicidal activity against Candida albicans MTCC 1637 after 24 hrs by serial dilution method; format: functional; conditions: MTCC 1637, 24 h
Candida albicans [19] = experiment: Antimicrobial activity against Candida albicans MTCC 854 after 24 hrs by well diffusion method; format: functional; conditions: MTCC 854, 24 h
Nakaseomyces glabratus [20] = experiment: Fungicidal activity against Candida glabrata MTCC 3019 after 24 hrs by serial dilution method; format: functional; conditions: MTCC 3019, 24 h
Candida albicans [21] = experiment: Antimicrobial activity against Candida albicans MTCC 3958 after 24 hrs by well diffusion method; format: functional; conditions: MTCC 3958, 24 h
Candida parapsilosis [22] = experiment: Antimicrobial activity against Candida parapsilosis MTCC 1744 after 24 hrs by well diffusion method; format: functional; conditions: Lodderomyces parapsilosis, MTCC 1744, 24 h
Candida albicans [23] = experiment: Antimicrobial activity against Candida albicans MTCC 227 after 24 hrs by well diffusion method; format: functional; conditions: MTCC 227, 24 h
Nakaseomyces glabratus [24] = experiment: Antimicrobial activity against Candida glabrata MTCC 3019 after 24 hrs by well diffusion method; format: functional; conditions: MTCC 3019, 24 h
Candida albicans [25] = experiment: Antimicrobial activity against Candida albicans MTCC 3018 after 24 hrs by well diffusion method; format: functional; conditions: MTCC 3018, 24 h
Candida albicans [26] = experiment: Fungicidal activity against Candida albicans MTCC 854 after 24 hrs by serial dilution method; format: functional; conditions: MTCC 854, 24 h
Candida parapsilosis [27] = experiment: Fungicidal activity against Candida parapsilosis MTCC 1744 after 24 hrs by serial dilution method; format: functional; conditions: Lodderomyces parapsilosis, MTCC 1744, 24 h
Pichia kudriavzevii [28] = experiment: Fungicidal activity against Candida krusei MTCC 3020 after 24 hrs by serial dilution method; format: functional; conditions: MTCC 3020, 24 h
Candida albicans [29] = experiment: Antimicrobial activity against Candida albicans MTCC 7315 after 24 hrs by well diffusion method; format: functional; conditions: MTCC 7315, 24 h
Candida albicans [30] = experiment: Antimicrobial activity against Candida albicans MTCC 183 after 24 hrs by well diffusion method; format: functional; conditions: MTCC 183, 24 h
Candida albicans [31] = experiment: Fungicidal activity against Candida albicans MTCC 3958 after 24 hrs by serial dilution method; format: functional; conditions: MTCC 3958, 24 h
Candida albicans [32] = experiment: Fungicidal activity against Candida albicans MTCC 227 after 24 hrs by serial dilution method; format: functional; conditions: MTCC 227, 24 h
[Candida] aaseri [33] = Antimicrobial activity against Candida aaseri MTCC 1962 after 24 hrs by well diffusion method; format: functional; conditions: Yamadazyma aaseri, MTCC 1962, 24 h
Pichia sporocuriosa [34] = experiment: Fungicidal activity against Issatchenkia hanoiensis MTCC 4755 after 24 hrs by serial dilution method; format: functional; conditions: MTCC 4755, 24 h
Candida albicans [35] = experiment: Fungicidal activity against Candida albicans MTCC 3018 after 24 hrs by serial dilution method; format: functional; conditions: MTCC 3018, 24 h
Pichia kudriavzevii [36] = experiment: Antimicrobial activity against Candida krusei MTCC 3020 after 24 hrs by well diffusion method; format: functional; conditions: MTCC 3020, 24 h
[Candida] aaseri [37] = Fungicidal activity against Candida aaseri MTCC 1962 after 24 hrs by serial dilution method; format: functional; conditions: Yamadazyma aaseri, MTCC 1962, 24 h
Candida albicans [38] = experiment: Fungicidal activity against Candida albicans MTCC 183 after 24 hrs by serial dilution method; format: functional; conditions: MTCC 183, 24 h
Candida albicans [39] = experiment: Fungicidal activity against Candida albicans MTCC 3017 after 24 hrs by serial dilution method; format: functional; conditions: MTCC 3017, 24 h
Candida albicans [40] = experiment: Antimicrobial activity against Candida albicans MTCC 4748 after 24 hrs by well diffusion method; format: functional; conditions: MTCC 4748, 24 h
Candida albicans [41] = experiment: Antimicrobial activity against Candida albicans MTCC 1637 after 24 hrs by well diffusion method; format: functional; conditions: MTCC 1637, 24 h
Pichia sporocuriosa [42] = experiment: Antimicrobial activity against Issatchenkia hanoiensis MTCC 4755 after 24 hrs by well diffusion method; format: functional; conditions: MTCC 4755, 24 h
Candida albicans [43] = experiment: Fungicidal activity against Candida albicans MTCC 4748 after 24 hrs by serial dilution method; format: functional; conditions: MTCC 4748, 24 h
Candida albicans [44] = experiment: Fungicidal activity against Candida albicans MTCC 7315 after 24 hrs by serial dilution method; format: functional; conditions: MTCC 7315, 24 h

COc1ccc(C[C@H](N)C(=O)N[C@H]2[C@@H](O)[C@H](n3cnc4c(N(C)C)ncnc43)O[C@@H]2CO)cc1 [PUROMYCIN]
700 nM: IC50 [1]
600 nM: IC50 (A549)

CO[C@@]12[C@H](COC(N)=O)C3=C(C(=O)C(C)=C(N)C3=O)N1C[C@@H]1N[C@@H]12 [MITOMYCIN]
1.9 µg/mL: MIC (Pseudomonas aeruginosa; MTCC 2453, 24 h) | MBC (Micrococcus luteus [3]) | MBC (Staphylococcus aureus [7]) | MIC (Staphylococcus aureus [13]; MLS16 MTCC 2940, 24 h) | MIC (Raoultella planticola [16]; MTCC 530, 24 h) | MIC (Staphylococcus aureus [17]; MTCC 96, 24 h)
0.9 µg/mL: MBC (Bacillus subtilis [2]) | MIC (Micrococcus luteus [8]; MTCC 2470, 24 h)
> 500 µg/mL: MIC (Candida albicans [14])
900 nM: IC50 (Micrococcus luteus [12]) | IC50 (Staphylococcus aureus [15])
300 nM: IC50 (Bacillus subtilis [4])
1100 nM: IC50 (Staphylococcus aureus [6]) | IC50 (Raoultella planticola [9])
3.9 µg/mL: MIC (Escherichia coli; MTCC 739, 24 h) | MBC (Staphylococcus aureus [10]) | MBC (Raoultella planticola [11])
500 nM: IC50 [1] | IC50 (A549)
0.45 µg/mL: MIC (Bacillus subtilis [5]; MTCC 121, 24 h)

Clc1ccc(COC(Cn2ccnc2)c2ccc(Cl)cc2Cl)c(Cl)c1 (configuration not stated) [MICONAZOLE]
inactive: MIC (Pseudomonas aeruginosa) | MIC (Bacillus subtilis [5]) | MIC (Escherichia coli) | MIC (Micrococcus luteus [8]) | MIC (Staphylococcus aureus [13]) | MIC (Raoultella planticola [16]) | MIC (Staphylococcus aureus [17])
7.8 µg/mL: MIC (Candida albicans [19]) | MIC (Candida albicans [21]) | MIC (Candida parapsilosis [22]) | MIC (Candida albicans [23]) | MIC (Nakaseomyces glabratus [24]) | MIC (Candida albicans [25]) | MFC (Candida albicans [26]) | MFC (Candida parapsilosis [27]) | MFC (Pichia kudriavzevii [28]) | MIC (Candida albicans [29]) | MIC (Candida albicans [30]) | MFC (Candida albicans [31]) | MFC (Candida albicans [32]) | MIC ([Candida] aaseri [33]) | MFC (Pichia sporocuriosa [34]) | MIC (Pichia kudriavzevii [36]) | MFC ([Candida] aaseri [37]) | MIC (Candida albicans [40]) | MIC (Candida albicans [41]) | MIC (Pichia sporocuriosa [42]) | MIC (Candida albicans [14]) | MFC (Candida albicans [44])
15.6 µg/mL: MFC (Candida albicans [18]) | MFC (Nakaseomyces glabratus [20]) | MFC (Candida albicans [35]) | MFC (Candida albicans [38]) | MFC (Candida albicans [39]) | MFC (Candida albicans [43])
